According to ChEMBL document CHEMBL1149802, “Chemiluminescent high-throughput microassay applied to imidazo[2,1-b]thiazole derivatives as potential acetylcholinesterase and butyrylcholinesterase inhibitors” (Eur J Med Chem, 2008):

Target: Acetylcholinesterase (Electrophorus electricus, UniProt O42275)
Assay: Inhibition of electric eel acetylcholine esterase type V-S in presence of acetylcholine substrate by chemiluminescent assay

Acetylcholinesterase, sequence (O42275 whole entry): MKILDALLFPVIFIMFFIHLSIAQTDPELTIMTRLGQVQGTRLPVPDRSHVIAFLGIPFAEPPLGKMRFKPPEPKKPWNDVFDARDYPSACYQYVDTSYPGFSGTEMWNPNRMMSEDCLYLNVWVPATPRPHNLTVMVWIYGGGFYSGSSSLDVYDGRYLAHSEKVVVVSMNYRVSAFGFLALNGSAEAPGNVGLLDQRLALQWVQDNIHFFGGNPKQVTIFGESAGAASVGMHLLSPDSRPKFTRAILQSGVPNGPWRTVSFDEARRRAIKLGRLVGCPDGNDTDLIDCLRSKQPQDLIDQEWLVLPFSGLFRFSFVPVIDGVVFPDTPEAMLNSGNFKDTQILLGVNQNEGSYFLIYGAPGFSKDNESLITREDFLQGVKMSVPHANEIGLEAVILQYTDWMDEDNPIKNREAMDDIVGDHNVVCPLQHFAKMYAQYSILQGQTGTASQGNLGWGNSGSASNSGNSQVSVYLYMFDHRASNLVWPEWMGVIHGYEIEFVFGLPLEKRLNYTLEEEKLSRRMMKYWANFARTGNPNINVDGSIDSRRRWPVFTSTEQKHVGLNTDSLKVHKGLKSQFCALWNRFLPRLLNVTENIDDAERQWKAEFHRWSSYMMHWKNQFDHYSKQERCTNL

| SMILES | IC50 [µM] |
| --- | --- |
| CC(=O)N1CCN(/N=C/c2c(C)nc3sccn23)C1=O | 35 |
| CC(=O)N1CCN(/N=C/c2c(Cl)nc3sccn23)C1=O | 60 |
| O=C(c1ccccc1)N1CCN(/N=C/c2c(Cl)nc3sccn23)C1=O | 4.2 |
